“And” between values parts separate entries of the source, which are not always exact repeats. Equal values may be shown once. Peptide text beside a SMILES is read from it.
What was measured:
[1] = target: T1, insulin receptor (Homo sapiens, UniProt P06213); assay: Insulin receptor competition binding assay (scintillation proximity); conditions: Table 9; for Ratio: IGF-1 receptor vs insulin receptor binding
T1 construct: expressed in transfected cells; plasma membrane fragments

[2] = Dipeptide cleavage from prodrug forms of IGF1 peptides in PBS; assay type: physicochemical; conditions: pH 7.4 at 37° C.
Description: The rate of cleavage was determined for the respective propeptides. The concentrations of the propeptides and the model parent peptide were determined by their respective peak areas. The first order dissociation rate constants of the prodrugs were determined by plotting the logarithm of the concentration of the prodrug at various time intervals. The slope of this plot provides the rate constant ‘k’.
The IGF^B16B17 derivative peptide prodrugs were incubated in PBS, pH 7.4 at 37° C. and at predetermined time intervals an aliquot was taken and further degredation was quenched with 0.1% TFA and the aliquot was subjected to analytical HPLC analysis.

[3] = Rate of model dipeptide cleavage in PBS (model hexapeptide); conditions: Table 2, dipeptide on side chain of N-terminal para-amino-Phe of HSRGTF-NH2
Description: The rate of cleavage was determined for the respective propeptides. The concentrations of the propeptides and the model parent peptide were determined by their respective peak areas. […] The slope of this plot provides the rate constant ‘k’.

[4] = target: T2, IGF-1 receptor (Homo sapiens, UniProt P08069); assay: IGF-1 receptor competition binding assay (scintillation proximity); conditions: Table 9
T2 construct: expressed in transfected cells; plasma membrane fragments
T2 sequence (P08069 31-736 limits assumed): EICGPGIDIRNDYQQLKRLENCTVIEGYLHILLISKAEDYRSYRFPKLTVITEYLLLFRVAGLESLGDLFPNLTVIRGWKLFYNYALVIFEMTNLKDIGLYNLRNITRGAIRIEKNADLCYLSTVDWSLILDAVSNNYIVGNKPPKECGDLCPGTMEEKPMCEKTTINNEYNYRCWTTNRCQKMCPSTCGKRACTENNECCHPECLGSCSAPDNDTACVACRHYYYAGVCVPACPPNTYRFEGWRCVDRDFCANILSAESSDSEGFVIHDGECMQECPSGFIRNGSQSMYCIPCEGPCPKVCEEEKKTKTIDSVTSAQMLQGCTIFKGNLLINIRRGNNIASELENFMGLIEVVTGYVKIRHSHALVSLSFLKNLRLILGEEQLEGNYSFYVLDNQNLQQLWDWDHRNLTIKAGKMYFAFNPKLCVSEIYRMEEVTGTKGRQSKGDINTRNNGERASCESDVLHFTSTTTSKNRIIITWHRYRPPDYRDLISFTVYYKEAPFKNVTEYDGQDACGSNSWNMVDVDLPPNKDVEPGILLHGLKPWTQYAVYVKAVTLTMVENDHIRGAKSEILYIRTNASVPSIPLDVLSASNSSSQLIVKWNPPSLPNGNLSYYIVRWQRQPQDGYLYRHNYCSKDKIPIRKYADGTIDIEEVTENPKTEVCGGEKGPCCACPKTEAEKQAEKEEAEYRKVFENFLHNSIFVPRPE
T2 sequence (P08069 741-1367 limits assumed): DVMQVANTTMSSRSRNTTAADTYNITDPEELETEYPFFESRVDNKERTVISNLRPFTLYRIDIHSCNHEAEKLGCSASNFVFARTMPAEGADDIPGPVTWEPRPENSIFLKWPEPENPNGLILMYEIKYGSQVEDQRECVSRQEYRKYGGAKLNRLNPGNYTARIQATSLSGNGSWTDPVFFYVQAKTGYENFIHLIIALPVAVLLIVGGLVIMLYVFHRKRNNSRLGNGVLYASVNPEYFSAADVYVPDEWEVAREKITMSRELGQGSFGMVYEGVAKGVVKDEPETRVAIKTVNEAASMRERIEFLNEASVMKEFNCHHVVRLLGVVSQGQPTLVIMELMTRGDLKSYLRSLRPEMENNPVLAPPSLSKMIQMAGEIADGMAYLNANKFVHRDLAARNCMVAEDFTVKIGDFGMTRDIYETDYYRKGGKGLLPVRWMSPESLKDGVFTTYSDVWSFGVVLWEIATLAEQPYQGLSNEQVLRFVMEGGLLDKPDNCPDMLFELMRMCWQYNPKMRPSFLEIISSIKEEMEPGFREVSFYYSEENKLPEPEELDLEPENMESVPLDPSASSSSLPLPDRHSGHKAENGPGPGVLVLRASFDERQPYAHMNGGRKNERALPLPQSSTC

[5] = cited from earlier work
[6] = in vivo; cited from earlier work
[7] = cited from earlier work; remark: listed apart in the source

T1 sequence (P06213 28-758 limits assumed): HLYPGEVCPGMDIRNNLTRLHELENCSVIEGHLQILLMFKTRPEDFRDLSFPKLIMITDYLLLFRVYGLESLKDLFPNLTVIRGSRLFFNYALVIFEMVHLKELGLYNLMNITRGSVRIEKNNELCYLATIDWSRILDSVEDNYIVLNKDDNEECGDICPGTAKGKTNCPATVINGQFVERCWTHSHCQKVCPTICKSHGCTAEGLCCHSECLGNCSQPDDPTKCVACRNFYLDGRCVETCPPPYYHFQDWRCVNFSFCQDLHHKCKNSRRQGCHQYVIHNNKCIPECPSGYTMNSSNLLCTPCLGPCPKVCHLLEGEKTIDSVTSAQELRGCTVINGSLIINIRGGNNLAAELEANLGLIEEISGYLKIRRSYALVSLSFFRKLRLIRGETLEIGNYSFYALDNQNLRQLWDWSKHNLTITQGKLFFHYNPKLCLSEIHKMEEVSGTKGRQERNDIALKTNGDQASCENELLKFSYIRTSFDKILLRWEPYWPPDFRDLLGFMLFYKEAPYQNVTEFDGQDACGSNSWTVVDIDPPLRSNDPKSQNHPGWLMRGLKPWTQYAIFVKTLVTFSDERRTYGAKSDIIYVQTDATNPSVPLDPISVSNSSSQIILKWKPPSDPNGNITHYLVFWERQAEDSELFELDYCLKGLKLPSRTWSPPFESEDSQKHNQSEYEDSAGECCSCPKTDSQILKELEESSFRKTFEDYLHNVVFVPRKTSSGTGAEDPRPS
T1 sequence (P06213 763-1382 limits assumed): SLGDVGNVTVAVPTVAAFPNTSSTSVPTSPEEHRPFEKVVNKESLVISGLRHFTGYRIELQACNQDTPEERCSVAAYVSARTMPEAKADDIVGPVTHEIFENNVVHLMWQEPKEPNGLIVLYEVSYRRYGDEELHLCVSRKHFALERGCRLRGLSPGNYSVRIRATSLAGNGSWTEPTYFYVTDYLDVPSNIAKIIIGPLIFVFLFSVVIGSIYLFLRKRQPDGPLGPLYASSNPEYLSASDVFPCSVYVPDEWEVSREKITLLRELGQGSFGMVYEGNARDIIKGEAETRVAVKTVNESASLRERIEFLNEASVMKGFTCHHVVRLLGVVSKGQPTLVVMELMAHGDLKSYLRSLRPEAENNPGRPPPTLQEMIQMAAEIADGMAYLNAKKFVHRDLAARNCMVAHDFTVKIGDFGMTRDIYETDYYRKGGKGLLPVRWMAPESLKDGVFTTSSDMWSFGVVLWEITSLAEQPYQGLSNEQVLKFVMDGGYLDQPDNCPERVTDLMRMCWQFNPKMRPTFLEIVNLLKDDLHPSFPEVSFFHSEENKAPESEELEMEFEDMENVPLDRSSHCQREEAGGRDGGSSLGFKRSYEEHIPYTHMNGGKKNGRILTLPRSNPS

CC[C@H](C)[C@H](NC(=O)CN)C(=O)N[C@H](C(=O)N[C@@H](CC(=O)O)C(=O)N[C@@H](CCC(=O)O)C(=O)N[C@H]1CSSC[C@@H]2NC(=O)[C@H](CO)NC(=O)[C@H](CCCNC(=N)N)NC(=O)[C@H](Cc3ccccc3)NC(=O)[C@H](CSSC[C@H](NC(=O)[C@H](CC(C)C)NC(=O)[C@@H](NC(=O)[C@H](CCC(=O)O)NC(=O)[C@@H]3CCCN3C(=O)CN)[C@@H](C)O)C(=O)NCC(=O)N[C@@H](CO)C(=O)N[C@@H](Cc3c[nH]cn3)C(=O)N[C@@H](CC(C)C)C(=O)N[C@@H](C(C)C)C(=O)N[C@@H](CCC(=O)O)C(=O)N[C@@H](C)C(=O)N[C@@H](CC(C)C)C(=O)N[C@@H](Cc3ccc(O)cc3)C(=O)N[C@@H](CC(C)C)C(=O)N[C@@H](C(C)C)C(=O)N[C@H](C(=O)NCC(=O)N[C@@H](CC(=O)O)C(=O)N[C@@H](CCCNC(=N)N)C(=O)NCC(=O)N[C@@H](Cc3ccccc3)C(=O)N[C@@H](Cc3ccc(O)cc3)C(=O)N[C@@H](Cc3ccccc3)C(=O)N[C@@H](CC(N)=O)C(=O)N[C@@H](CCCCN)C(=O)N3CCC[C@H]3C(=O)N[C@H](C(N)=O)[C@@H](C)O)CSSC[C@@H](C(=O)N[C@@H](C)C(N)=O)NC(=O)[C@H](Cc3ccc(O)cc3)NC(=O)[C@H](CCSC)NC(=O)[C@H](CCC(=O)O)NC(=O)[C@H](CC(C)C)NC(=O)[C@H](CCCNC(=N)N)NC(=O)[C@H](CCCNC(=N)N)NC(=O)[C@H](CC(C)C)NC(=O)[C@H](CC(=O)O)NC2=O)NC1=O)C(C)C
Ratio [1]: 82.6

CC[C@H](C)[C@H](NC(=O)CN)C(=O)N[C@H](C(=O)N[C@@H](CC(=O)O)C(=O)N[C@@H](CCC(=O)O)C(=O)N[C@@H](C)C(=O)N[C@@H](C)C(=O)N[C@@H](Cc1ccccc1)C(=O)N[C@@H](CCCNC(=N)N)C(=O)N[C@@H](CO)C(=O)N[C@@H](C)C(=O)N[C@@H](CC(=O)O)C(=O)N[C@@H](CC(C)C)C(=O)N[C@@H](CCCNC(=N)N)C(=O)N[C@@H](CCCNC(=N)N)C(=O)N[C@@H](CC(C)C)C(=O)N[C@@H](CCC(=O)O)C(=O)N[C@@H](CCSC)C(=O)N[C@@H](Cc1ccc(NC(=O)[C@@H]2CCCN2C(=O)C(C)(C)N)cc1)C(=O)N[C@@H](C)C(=O)N[C@@H](C)C(N)=O)C(C)C [AiB Pro] (HELM PEPTIDE1{G.I.V.D.E.A.A.F.R.S.A.D.L.R.R.L.E.M.[O=C([C@H](Cc1ccc(N[*:3])cc1)N[*:1])[*:2]].A.A.[am]}|PEPTIDE2{[Aib].P}$PEPTIDE1,PEPTIDE2,19:R3-2:R2$$$V2.0)
dipeptide cleavage / conversion to active form (in words) [2]: spontaneous, non-enzymatic conversion

C[C@@H](O)[C@H](NC(=O)CNC(=O)[C@H](CCCNC(=N)N)NC(=O)[C@H](CO)NC(=O)[C@H](Cc1c[nH]cn1)NC(=O)[C@@H](N)Cc1ccc(NC(=O)CNC(=O)CN)cc1)C(=O)N[C@@H](Cc1ccccc1)C(N)=O [Compound 18]
t1/2 (result in words) [3]: No cleavage

C[C@@H](O)[C@H](NC(=O)CNC(=O)[C@H](CCCNC(=N)N)NC(=O)[C@H](CO)NC(=O)[C@H](Cc1c[nH]cn1)NC(=O)[C@@H](N)Cc1ccc(NC(=O)CNC(=O)CO)cc1)C(=O)N[C@@H](Cc1ccccc1)C(N)=O [Compound 19]
t1/2 (result in words) [3]: No cleavage

CC[C@H](C)[C@H](NC(=O)CN)C(=O)N[C@H](C(=O)N[C@@H](CC(=O)O)C(=O)N[C@@H](CCC(=O)O)C(=O)N[C@H]1CSSC[C@@H]2NC(=O)[C@H](CO)NC(=O)[C@H](CCCNC(=N)N)NC(=O)[C@H](Cc3ccccc3)NC(=O)[C@H](CSSC[C@H](NC(=O)[C@H](CC(C)C)NC(=O)[C@H](Cc3c[nH]cn3)NC(=O)[C@H](CCC(=O)O)NC(=O)[C@@H]3CCCN3C(=O)CN)C(=O)NCC(=O)N[C@@H](C)C(=O)N[C@@H](CC(=O)O)C(=O)N[C@@H](CC(C)C)C(=O)N[C@@H](C(C)C)C(=O)N[C@@H](CC(=O)O)C(=O)N[C@@H](C)C(=O)N[C@@H](CC(C)C)C(=O)N[C@@H](Cc3ccc(O)cc3)C(=O)N[C@@H](CC(C)C)C(=O)N[C@@H](C(C)C)C(=O)N[C@H](C(=O)NCC(=O)N[C@@H](CC(=O)O)C(=O)N[C@@H](CCCNC(=N)N)C(=O)NCC(=O)N[C@@H](Cc3ccccc3)C(=O)N[C@@H](Cc3ccc(O)cc3)C(N)=O)CSSC[C@@H](C(=O)N[C@@H](C)C(N)=O)NC(=O)[C@H](Cc3ccc(O)cc3)NC(=O)[C@H](CC[S+](C)[O-])NC(=O)[C@H](CCC(=O)O)NC(=O)[C@H](CC(C)C)NC(=O)[C@H](CCCNC(=N)N)NC(=O)[C@H](CCCNC(=N)N)NC(=O)[C@H](CC(C)C)NC(=O)[C@H](CC(=O)O)NC2=O)NC1=O)C(C)C (stereo partly shown) [IGF-1 A:B (H5D10Y16L17) (S═O)DPI]
IC50 ([1]; read-out: Insulin Receptor nM IC50:): 0.25 nM

CC[C@H](C)[C@H](NC(=O)CN)C(=O)N[C@H](C(=O)N[C@@H](CC(=O)O)C(=O)N[C@@H](CCC(=O)O)C(=O)N[C@H]1CSSC[C@@H]2NC(=O)[C@H](CO)NC(=O)[C@H](CCCNC(=N)N)NC(=O)[C@H](Cc3ccccc3)NC(=O)[C@H](CSSC[C@H](NC(=O)[C@H](CC(C)C)NC(=O)[C@@H](NC(=O)[C@H](CCC(=O)O)NC(=O)[C@@H]3CCCN3C(=O)CN)[C@@H](C)O)C(=O)NCC(=O)N[C@@H](C)C(=O)N[C@@H](CCC(=O)O)C(=O)N[C@@H](CC(C)C)C(=O)N[C@@H](C(C)C)C(=O)N[C@@H](CC(=O)O)C(=O)N[C@@H](C)C(=O)N[C@@H](CC(C)C)C(=O)N[C@@H](Cc3ccc(O)cc3)C(=O)N[C@@H](CC(C)C)C(=O)N[C@@H](C(C)C)C(=O)N[C@H](C(=O)NCC(=O)N[C@@H](CC(=O)O)C(=O)N[C@@H](CCCNC(=N)N)C(=O)NCC(=O)N[C@@H](Cc3ccccc3)C(=O)N[C@@H](Cc3ccc(O)cc3)C(=O)N[C@@H](Cc3ccccc3)C(=O)N[C@@H](CC(N)=O)C(=O)N[C@@H](CCCCN)C(=O)N3CCC[C@H]3C(=O)N[C@H](C(N)=O)[C@@H](C)O)CSSC[C@@H](C(=O)N[C@@H](C)C(N)=O)NC(=O)[C@H](Cc3ccc(O)cc3)NC(=O)[C@H](CCSC)NC(=O)[C@H](CCC(=O)O)NC(=O)[C@H](CC(C)C)NC(=O)[C@H](CCCNC(=N)N)NC(=O)[C@H](CCCNC(=N)N)NC(=O)[C@H](CC(C)C)NC(=O)[C@H](CC(=O)O)NC2=O)NC1=O)C(C)C [IGF-1 A:B(E10Y16L17)]
IC50 ([4]; IGF-1 Receptor IC50:): 12.2 nM

CC[C@H](C)[C@H](NC(=O)CN)C(=O)N[C@H](C(=O)N[C@@H](CC(=O)O)C(=O)N[C@@H](CCC(=O)O)C(=O)N[C@H]1CSSC[C@@H]2NC(=O)[C@H](CO)NC(=O)[C@H](CCCNC(=N)N)NC(=O)[C@H](Cc3ccccc3)NC(=O)[C@H](CSSC[C@H](NC(=O)[C@H](CC(C)C)NC(=O)[C@H](Cc3c[nH]cn3)NC(=O)[C@H](CCC(N)=O)NC(=O)[C@H](CC(N)=O)NC(=O)[C@@H](NC(=O)[C@@H](N)Cc3ccccc3)C(C)C)C(=O)NCC(=O)N[C@@H](CO)C(=O)N[C@@H](Cc3c[nH]cn3)C(=O)N[C@@H](CC(C)C)C(=O)N[C@@H](C(C)C)C(=O)N[C@@H](CCC(=O)O)C(=O)N[C@@H](C)C(=O)N[C@@H](CC(C)C)C(=O)N[C@@H](Cc3ccc(O)cc3)C(=O)N[C@@H](CC(C)C)C(=O)N[C@@H](C(C)C)C(=O)N[C@H](C(=O)NCC(=O)N[C@@H](CC(=O)O)C(=O)N[C@@H](CCCNC(=N)N)C(=O)NCC(=O)N[C@@H](Cc3ccccc3)C(=O)N[C@@H](Cc3ccc(O)cc3)C(=O)N[C@@H](Cc3ccccc3)C(=O)N[C@@H](CC(N)=O)C(=O)N[C@@H](CCCCN)C(=O)N3CCC[C@H]3C(=O)N[C@H](C(N)=O)[C@@H](C)O)CSSC[C@@H](C(=O)N[C@@H](C)C(N)=O)NC(=O)[C@H](Cc3ccc(O)cc3)NC(=O)[C@H](CCSC)NC(=O)[C@H](CCC(=O)O)NC(=O)[C@H](CC(C)C)NC(=O)[C@H](CCCNC(=N)N)NC(=O)[C@H](CCCNC(=N)N)NC(=O)[C@H](CC(C)C)NC(=O)[C@H](CC(=O)O)NC2=O)NC1=O)C(C)C [IGF-1 A:In (1-17)-IGF-1 B (18-30)]
IGF-1 Receptor % IGF-1 (in test) [4]: 0.9%
Insulin Receptor % insulin (in test) [1]: 14.0% and 11.3% and 20.1%
Ratio [1]: 22.6
Insulin Receptor % native insulin activity (0.6 nM) ([1]; relative to 0.6 nM): 21.7% and 22.5% and 24.2%

[GlyA21, ArgB31, ArgB32]insulin
IGF-1 affinity (in words) [5]: enhanced IGF-1 affinity

[LysB29-tetradecanoyl, des(B30)]insulin
plasma half life (in words) [6]: increased plasma half life
potency in vivo (in words) [7]: reduced potency in vivo
